According to patent US20120184562A1, “1,6- AND 1,8-NAPHTHYRIDINES” (priority 2011, published 2012):

Key:
Human DYRK1B = molecular target: T1, Human DYRK1B (Homo sapiens, UniProt Q9Y463); assay: DYRK1B Kinase TR-FRET (IMAP-Tb) Assay; type: biochemical; conditions: for IC50: TR-FRET (IMAP-Tb), ATP 70 μM, 37° C., 60 minutes, average of multiple runs, read-out: Enzyme IC50 (μM) DYRK1B; for inhibition at 10 µM: % inhibition at 10 μM test compound concentration, where IC50 not determined
T1 construct: purchased Invitrogen PR8350B (former PV4649)
T1 sequence (Q9Y463 whole entry): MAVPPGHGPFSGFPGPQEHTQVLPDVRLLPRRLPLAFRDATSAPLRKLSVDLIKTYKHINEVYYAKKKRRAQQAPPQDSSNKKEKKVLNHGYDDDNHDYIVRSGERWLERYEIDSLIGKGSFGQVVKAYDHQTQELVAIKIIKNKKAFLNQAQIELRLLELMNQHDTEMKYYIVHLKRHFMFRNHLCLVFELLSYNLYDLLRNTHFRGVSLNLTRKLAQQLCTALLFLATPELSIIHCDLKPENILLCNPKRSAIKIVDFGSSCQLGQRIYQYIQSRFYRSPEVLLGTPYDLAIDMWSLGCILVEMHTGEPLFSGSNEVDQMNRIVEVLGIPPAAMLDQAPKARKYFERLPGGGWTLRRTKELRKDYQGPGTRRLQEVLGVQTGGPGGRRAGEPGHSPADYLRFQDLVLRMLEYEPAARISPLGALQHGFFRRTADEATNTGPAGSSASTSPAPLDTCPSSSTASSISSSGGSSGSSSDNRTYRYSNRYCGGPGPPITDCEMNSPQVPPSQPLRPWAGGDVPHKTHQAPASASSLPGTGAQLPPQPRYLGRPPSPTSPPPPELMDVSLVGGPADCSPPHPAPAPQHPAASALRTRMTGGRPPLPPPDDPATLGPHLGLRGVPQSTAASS
Text: DYRK1B Kinase TR-FRET (IMAP-Tb) Assay The kinase TR-FRET (IMAP-Tb) assay uses a fluorescence labeled substrate peptide in the kinase reaction. Upon phosphorylation by the kinase, phosphopeptide is produced, which will be detected by the binding solution provided in IMAP TR-FRET binding kit. After the completion of the kinase reaction, the reaction will be stopped by adding the binding solution containing terbium tracer. This tracer is immobilized on the surface of the IMAP beads, which also contain metal ions on the beads that bind to the phospho-groups of the products. Thus the phosphorylated product of the reaction can enter into close proximity to the tracer, producing resonance energy transfer. Due to the long lifetime of terbium (Tb) fluorescence the detection can be run in time resolved mode, which virtually eliminates fluorescence interference from assay components or compounds. The TR-FRET signal measurement from this assay, given as an IC50 measurement, is a measure of a test compound's ability to interfere with the phosphorylation of the peptide substrate, that is it inhibits the phosphorylation of the substrate peptide by DYRK1B, and is thus a measure of the test compound's ability to inhibit the activity of DYRK1B. […] Human DYRK1B: from Invitrogen. Part #PR8350B (former PV4649) • 2. Substrate Peptide: in-house synthesized: RRRFRPASPLRGPPK • 3. IMAP TR-FRET IPP Explorer Kit: from Molecular Devices. Part #R8157 • 4. Kinase Assay Buffer (KAB): 10 mM HEPES pH 7.0, 50 mM NaCl, 5 mM MgCl2, 1 mM DTT, 1 mM NaVO4, 200 μg/mL BSA (0.02%) • 5. Assay Plate: Remp polypropylene clear 384-well microplate. Cat#23490-102 • 6. Detection Plate: Costa black 384-well microplate. Cat #3710 Assay Procedure: This assay was performed as follows: • 1. Transfer 1.5 μL of 20× compound solution to each well of an assay plate. • 2. Add to each well 22.5 μL of KAB Buffer. • 3. Add to each well 3 μL of the solution of DYRK1B and ATP. […] Add to each well 3 μL of the substrate peptide. The assay concentration is 1.0 μM • 5. Incubate the assay plates at 37° C. for 60 minutes. • 6. Add 18 μL of Detection Solution (1:800 diluted Progress bead stock, 1:400 diluted Tb stock, 80% Buffer A, and 20% Buffer B) into each well of detection plates. • 7. Transfer 6 μL of assay solution from the assay plate to the detection plate. • 8. Shake detection plates for 30 minutes. • 9. Read plates in Envision with wavelength set at excitation 340 nm for Tb, emission 490 nm, and […] 520 nm. • 10. Calculation: TR-FRET Signal=(Reading at […]/Reading at 490 nM)×2000000

Human DYRK1A = molecular target: T2, Human DYRK1A (Homo sapiens, UniProt Q13627); assay: DYRK1A Kinase TR-FRET (IMAP-Tb) Assay; type: biochemical; conditions: for inhibition at 10 µM: % inhibition at 10 μM test compound concentration, where IC50 not determined, read-out: % inhibition DYRK1A (printed in the Enzyme IC50 DYRK1A column); for IC50: TR-FRET (IMAP-Tb), ATP 70 μM, 37° C., 60 minutes, average of multiple runs, read-out: Enzyme IC50 (μM) DYRK1A
T2 construct: purchased Invitrogen PV3997
Text: DYRK1A Kinase TR-FRET (IMAP-Tb) Assay
The kinase TR-FRET (IMAP-Tb) assay uses a fluorescence labeled substrate peptide in the kinase reaction. Upon phosphorylation by the kinase, phosphopeptide is produced, which will be detected by the binding solution provided in IMAP TR-FRET binding kit. After the completion of the kinase reaction, the reaction will be stopped by adding the binding solution containing terbium tracer. This tracer is immobilized on the surface of the IMAP beads, which also contain metal ions on the beads that bind to the phospho-groups of the products. Thus the phosphorylated product of the reaction can enter into close proximity to the tracer, producing resonance energy transfer. Due to the long lifetime of terbium (Tb) fluorescence the detection can be run in time resolved mode, which virtually eliminates fluorescence interference from assay components or compounds.
The TR-FRET signal measurement from this assay, given as an IC50 measurement, is a measure of a test compound's ability to interfere with the phosphorylation of the peptide substrate, that is it inhibits the phosphorylation of the substrate peptide by DYRK1A, and is thus a measure of the test compound's ability to inhibit the activity of DYRK1A.
• 1. Human DYRK1A: from Invitrogen. Part #PV3997 • 2. Substrate Peptide: […] • 3. IMAP TR-FRET IPP Explorer Kit: from Molecular Devices. Part #R8157 • 4. Kinase Assay Buffer (KAB): 10 mM HEPES pH 7.0, 50 mM NaCl, 5 mM MgCl2, 1 mM DTT, 1 mM NaVO4, 200 μg/mL BSA (0.02%) • 5. Assay Plate: Remp polypropylene clear 384-well microplate. […] Detection Plate: Costa black 384-well microplate. […] Transfer 1.5 μL of 20× compound solution to each well of an assay plate. • 2. Add to each well 22.5 μL of KAB Buffer. • 3. Add to each well 3 μL of the solution of DYRK1A and ATP. […] Add to each well 3 μL of the substrate peptide. The assay concentration is 1.0 μM • 5. Incubate the assay plates at 37° C. for 60 minutes. • 6. Add 18 μL of Detection Solution (1:800 diluted Progress bead stock, 1:400 diluted Tb stock, 80% Buffer A, and 20% Buffer B) into each well of detection plates. • 7. Transfer 6 μL of assay solution from the assay plate to the detection plate. • 8. Shake detection plates for 30 minutes. • 9. Read plates in Envision with wavelength set at excitation 340 nm for Tb, emission 490 nm, and […].

Row | SMILES | IC50 (Human DYRK1B) | inhibition at 10 µM (Human DYRK1A) | inhibition at 10 µM (Human DYRK1B) | IC50 (Human DYRK1A)
1 | COC(=O)c1ccc(C)c(NC(=O)c2cc3cnc(OC)cc3[nH]c2=O)c1 [Example 28, 3-[(7-Methoxy-2-oxo-1,2-dihydro-[1,6]naphthyridine-3-carbonyl)-amino]-4-methyl-benzoic acid methyl ester] | > 10 µM | 24% |  | 
2 | COc1cc2[nH]c(=O)c(C(=O)Nc3cc(C(=O)NCc4ccccc4)ccc3Cl)cc2cn1 [Example 32, 7-Methoxy-2-oxo-1,2-dihydro-[1,6]naphthyridine-3-carboxylic acid (5-benzylcarbamoyl-2-chloro-phenyl)-amide] |  | 23% | 19% | 
3 | COc1cc2[nH]c(=O)c(C(=O)Nc3cc(C(=O)NCc4ccccc4Cl)ccc3C)cc2cn1 [Example 34, 7-Methoxy-2-oxo-1,2-dihydro-[1,6]naphthyridine-3-carboxylic acid [5-(2-chloro-benzylcarbamoyl)-2-methyl-phenyl]-amide] |  | 45% | 28% | 
4 | COc1cc2[nH]c(=O)c(C(=O)Nc3cc(C(=O)NCc4cccc(Cl)c4)ccc3C)cc2cn1 [Example 35, 7-Methoxy-2-oxo-1,2-dihydro-[1,6]naphthyridine-3-carboxylic acid [5-(3-chloro-benzylcarbamoyl)-2-methyl-phenyl]-amide] |  | 45% | 35% | 
5 | COc1cc2[nH]c(=O)c(C(=O)Nc3cc(C(=O)NCc4ccc(Cl)cc4)ccc3C)cc2cn1 [Example 36, 7-Methoxy-2-oxo-1,2-dihydro-[1,6]naphthyridine-3-carboxylic acid [5-(4-chloro-benzylcarbamoyl)-2-methyl-phenyl]-amide] | > 10 µM |  |  | > 10 µM
6 | COc1cc2[nH]c(=O)c(C(=O)Nc3cc(C(=O)NCc4ccccc4Cl)ccc3Cl)cc2cn1 [Example 39, 7-Methoxy-2-oxo-1,2-dihydro-[1,6]naphthyridine-3-carboxylic acid [2-chloro-5-(2-chloro-benzylcarbamoyl)-phenyl]-amide] | 7.22 µM |  |  | 0.63 µM
7 | COc1cc2[nH]c(=O)c(C(=O)Nc3cc(C(=O)NCc4cccc(Cl)c4)ccc3Cl)cc2cn1 [Example 40, 7-Methoxy-2-oxo-1,2-dihydro-[1,6]naphthyridine-3-carboxylic acid [2-chloro-5-(3-chloro-benzylcarbamoyl)-phenyl]-amide] |  |  |  | 0.051 µM
8 | COc1cc2[nH]c(=O)c(C(=O)Nc3cc(C(=O)NCc4ccc(Cl)cc4)ccc3Cl)cc2cn1 [Example 41, 7-Methoxy-2-oxo-1,2-dihydro-[1,6]naphthyridine-3-carboxylic acid [2-chloro-5-(4-chloro-benzylcarbamoyl)-phenyl]-amide] | > 10 µM |  |  | > 10 µM
9 | COc1cc2[nH]c(=O)c(C(=O)Nc3cc(C(=O)NCc4cccs4)ccc3Cl)cc2cn1 [Example 42, 7-Methoxy-2-oxo-1,2-dihydro-[1,6]naphthyridine-3-carboxylic acid {2-chloro-5-[(thiophen-2-ylmethyl)-carbamoyl]-phenyl}-amide] |  | 27% | 41% | 
10 | COC(=O)c1ccc(C)c(NC(=O)c2cc3cnc(N4CCN(C)CC4)cc3[nH]c2=O)c1 [Example 74, 4-Methyl-3-{[7-(4-methyl-piperazin-1-yl)-2-oxo-1,2-dihydro-[1,6]naphthyridine-3-carbonyl]-amino}-benzoic acid methyl ester] | 3.55 µM |  |  | 0.96 µM
11 | COC(=O)c1ccc(C)c(NC(=O)c2cc3ccc(N4CCN(C)CC4)nc3[nH]c2=O)c1 [Example 87, 4-Methyl-3-{[7-(4-methyl-piperazin-1-yl)-2-oxo-1,2-dihydro-[1,8]naphthyridine-3-carbonyl]-amino}-benzoic acid methyl ester] | 1.31 µM |  |  | 0.915 µM
12 | COC(=O)c1ccc(C)c(NC(=O)c2cc3ccc(OC)nc3[nH]c2=O)c1 [Example 89, 3-[(7-Methoxy-2-oxo-1,2-dihydro-[1,8]naphthyridine-3-carbonyl)-amino]-4-methyl-benzoic acid methyl ester] |  |  | 47% | 0.125 µM
13 | COc1ccc2cc(C(=O)Nc3cc(C(=O)NCc4ccccc4)ccc3Cl)c(=O)[nH]c2n1 [Example 94, N-(5-(Benzylcarbamoyl)-2-chlorophenyl)-7-methoxy-2-oxo-1,2-dihydro-1,8-naphthyridine-3-carboxamide] | 0.079 µM |  |  | 0.05 µM
14 | COc1ccc2cc(C(=O)Nc3cc(C(=O)NCc4ccccc4)ccc3C)c(=O)[nH]c2n1 [Example 98, N-(5-(Benzylcarbamoyl)-2-methylphenyl)-7-methoxy-2-oxo-1,2-dihydro-1,8-naphthyridine-3-carboxamide] | 0.69 µM |  |  | 0.79 µM
15 | COc1ccc2cc(C(=O)Nc3cc(C(=O)NC(CCN)c4ccccc4)ccc3C)c(=O)[nH]c2n1 (centres unmarked) [Example 100, N-(5-(3-Amino-1-phenylpropylcarbamoyl)-2-methylphenyl)-7-methoxy-2-oxo-1,2-dihydro-1,8-naphthyridine-3-carboxamide] | 0.0158 µM |  |  | 0.0162 µM
